Measurements reported in paper PMC6348381, “Discovery of an MLLT1/3 YEATS Domain Chemical Probe” (Angewandte Chemie (International Ed. in English), 2018).

Assays:
Format in all cases: binding
PB1(2) = target: T1, PB1(2) (Homo sapiens, UniProt Q86U86); test: Thermal shift assay, PB1(2)
T1 construct: PB1(2); purchased in-house (SGC bromodomain thermal shift / AlphaScreen panel)

BRPF1B = target: T2, BRPF1B (Homo sapiens, UniProt P55201); test: Thermal shift assay, BRPF1B
T2 construct: purchased in-house (SGC bromodomain thermal shift / AlphaScreen panel)
T2 sequence (P55201 1-1214): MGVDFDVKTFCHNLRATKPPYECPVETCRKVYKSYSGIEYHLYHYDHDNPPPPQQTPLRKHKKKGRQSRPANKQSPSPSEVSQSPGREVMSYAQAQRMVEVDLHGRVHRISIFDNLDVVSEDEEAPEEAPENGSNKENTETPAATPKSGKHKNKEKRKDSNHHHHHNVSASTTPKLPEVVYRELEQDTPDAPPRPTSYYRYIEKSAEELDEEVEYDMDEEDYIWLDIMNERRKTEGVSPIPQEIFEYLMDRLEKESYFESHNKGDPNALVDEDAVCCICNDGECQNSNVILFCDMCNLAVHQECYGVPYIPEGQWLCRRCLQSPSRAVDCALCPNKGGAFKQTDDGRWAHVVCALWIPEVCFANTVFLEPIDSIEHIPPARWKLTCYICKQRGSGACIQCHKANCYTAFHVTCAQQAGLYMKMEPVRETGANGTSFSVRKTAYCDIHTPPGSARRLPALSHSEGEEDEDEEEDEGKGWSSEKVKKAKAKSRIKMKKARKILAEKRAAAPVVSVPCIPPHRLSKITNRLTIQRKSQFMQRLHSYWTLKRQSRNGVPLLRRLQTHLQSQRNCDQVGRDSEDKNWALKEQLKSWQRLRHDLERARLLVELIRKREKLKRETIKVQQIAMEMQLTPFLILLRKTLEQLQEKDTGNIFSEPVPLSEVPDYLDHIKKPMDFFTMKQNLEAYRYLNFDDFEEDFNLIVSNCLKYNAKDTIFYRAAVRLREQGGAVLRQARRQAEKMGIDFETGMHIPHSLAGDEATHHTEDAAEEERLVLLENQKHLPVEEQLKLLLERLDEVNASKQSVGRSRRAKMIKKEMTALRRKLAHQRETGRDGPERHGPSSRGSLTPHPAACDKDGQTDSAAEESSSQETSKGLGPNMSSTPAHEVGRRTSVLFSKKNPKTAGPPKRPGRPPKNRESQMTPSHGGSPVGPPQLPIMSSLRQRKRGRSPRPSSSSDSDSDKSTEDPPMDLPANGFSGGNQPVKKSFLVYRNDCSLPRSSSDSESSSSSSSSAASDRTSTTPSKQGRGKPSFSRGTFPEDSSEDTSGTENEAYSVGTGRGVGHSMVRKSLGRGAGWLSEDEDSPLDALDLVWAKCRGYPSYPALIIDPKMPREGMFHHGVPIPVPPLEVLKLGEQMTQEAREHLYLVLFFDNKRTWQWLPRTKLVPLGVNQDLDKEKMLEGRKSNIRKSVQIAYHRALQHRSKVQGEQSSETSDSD

ATAD2A = target: T3, ATAD2A (Homo sapiens, UniProt Q6PL18); test: Thermal shift assay, ATAD2A
T3 construct: purchased in-house (SGC bromodomain thermal shift / AlphaScreen panel)
T3 sequence (Q6PL18 1-1390): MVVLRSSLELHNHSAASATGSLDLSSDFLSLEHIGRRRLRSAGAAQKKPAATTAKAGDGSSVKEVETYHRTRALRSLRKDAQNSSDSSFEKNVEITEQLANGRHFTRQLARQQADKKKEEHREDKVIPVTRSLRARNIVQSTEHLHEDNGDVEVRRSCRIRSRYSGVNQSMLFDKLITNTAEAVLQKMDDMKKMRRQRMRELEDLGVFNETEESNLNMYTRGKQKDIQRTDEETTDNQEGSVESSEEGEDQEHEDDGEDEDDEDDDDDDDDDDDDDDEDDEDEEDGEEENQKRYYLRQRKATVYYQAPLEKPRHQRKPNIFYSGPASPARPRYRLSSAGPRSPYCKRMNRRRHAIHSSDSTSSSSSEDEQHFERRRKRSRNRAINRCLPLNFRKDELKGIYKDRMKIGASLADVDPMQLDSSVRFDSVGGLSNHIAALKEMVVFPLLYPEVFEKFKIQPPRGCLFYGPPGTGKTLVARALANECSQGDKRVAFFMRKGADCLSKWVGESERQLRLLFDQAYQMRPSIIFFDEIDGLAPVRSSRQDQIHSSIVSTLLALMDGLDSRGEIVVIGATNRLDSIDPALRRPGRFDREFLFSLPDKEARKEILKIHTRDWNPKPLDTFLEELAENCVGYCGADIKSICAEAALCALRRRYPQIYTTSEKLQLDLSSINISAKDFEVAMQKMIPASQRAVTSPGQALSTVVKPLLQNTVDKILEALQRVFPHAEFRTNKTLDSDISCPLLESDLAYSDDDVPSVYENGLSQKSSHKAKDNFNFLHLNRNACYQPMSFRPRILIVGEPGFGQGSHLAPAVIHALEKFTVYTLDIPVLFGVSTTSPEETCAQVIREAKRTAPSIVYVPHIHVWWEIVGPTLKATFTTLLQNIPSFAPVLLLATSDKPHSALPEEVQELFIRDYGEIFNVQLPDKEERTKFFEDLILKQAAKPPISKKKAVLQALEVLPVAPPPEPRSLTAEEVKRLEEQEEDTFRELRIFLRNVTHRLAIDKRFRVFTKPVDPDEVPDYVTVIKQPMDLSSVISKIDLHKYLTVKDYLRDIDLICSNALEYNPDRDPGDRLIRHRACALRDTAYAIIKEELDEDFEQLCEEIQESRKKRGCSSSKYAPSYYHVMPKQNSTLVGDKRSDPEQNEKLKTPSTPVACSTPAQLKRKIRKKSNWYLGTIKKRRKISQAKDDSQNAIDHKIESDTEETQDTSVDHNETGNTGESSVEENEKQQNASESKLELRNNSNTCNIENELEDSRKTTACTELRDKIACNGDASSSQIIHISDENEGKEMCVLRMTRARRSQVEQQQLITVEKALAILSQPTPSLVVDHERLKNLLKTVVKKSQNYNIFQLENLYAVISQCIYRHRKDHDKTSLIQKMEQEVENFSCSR
Experimental: II.VII Thermal Shift Assay[6]
Thermal melting experiments were carried out using an Mx3005p Real Time PCR machine (Stratagene). Proteins were buffered in 10 mM HEPES pH 7.5, 500 mM NaCl and assayed in a 96-well plate at a final concentration of 2 μM in 20 μL volume. Compounds were added at a final concentration of 50 μM. SYPRO Orange (Molecular Probes) was added as a fluorescence probe at a dilution of 1:1000. Excitation and emission filters for the SYPRO-Orange dye were set to 465 nm and 590 nm, respectively. The temperature was raised with a step of 3 °C per minute from 25 °C to 96 °C and fluorescence readings were taken at each interval. The unfolding curves were fitted using the Boltzmann equation to determine the middle point of the transition.

T1 sequence (Q86U86 178-291 limits assumed): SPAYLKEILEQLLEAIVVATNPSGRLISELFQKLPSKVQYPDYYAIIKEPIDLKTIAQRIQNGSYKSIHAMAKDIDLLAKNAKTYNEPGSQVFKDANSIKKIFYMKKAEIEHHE

Row | SMILES | Thermal stabilisation, PB1(2) (PB1(2); 50 μM compound) | Thermal stabilisation, BRPF1B (BRPF1B; 50 μM compound) | Thermal stabilisation, ATAD2A (ATAD2A; 50 μM compound) | Thermal stabilisation, PB1(2) (PB1(2); 10 µM compound concentration) | Thermal stabilisation, BRPF1B (BRPF1B; 10 µM compound concentration) | Thermal stabilisation, ATAD2A (ATAD2A; 10 µM compound concentration)
1 | COC(=O)c1ccc(C(=O)Nc2ccc3[nH]c(CN4CCCCC4)nc3c2)cc1 [Compound 1] | 0.105 | 0.275 | 0.54 |  |  | 
2 | C[C@H]1CCCN1Cc1nc2cc(NC(=O)c3ccc4c(cnn4C)c3)ccc2[nH]1 [Compound 92] | -0.17 | -0.435 | 0.56 |  |  | 
3 | CCOC(=O)Nc1cc(-c2ccc(C)c(NS(C)(=O)=O)c2)nn2c(C)nnc12 [Bromosporine, reference compound] |  |  |  | 0.105 | 4.23 | 0.67
